This is an account of results in ChEMBL document CHEMBL3044883, “Synthesis, spectral, theoretical, and antimicrobial screening of some heterocyclic oximes” (2011).

SMILES strings stand for the structures. Values after ≈ are worked out from the molar mass of the structure shown.

What all share (type): functional
In assay [1] the test system is Rhizopus. Description: Antifungal activity against Rhizopus after 72 to 96 hr by two-fold serial dilution method.
Assay [2] relates to Aspergillus flavus. Put plainly: Antifungal activity against Aspergillus flavus after 72 to 96 hr by two-foldserial dilution method.
Assay [3] relates to Aspergillus niger. Put plainly: Antifungal activity against Aspergillus niger after 72 to 96 hr by two-foldserial dilution method.
Assay [4] has as its system Escherichia coli. Description: Antibacterial activity against Escherichia coli after 24 hr by two-fold serial dilution method.
Assay [5] has as its system Staphylococcus aureus. Put plainly: Antibacterial activity against Staphylococcus aureus after 24 hr by two fold serial dilution method.
For assay [6], the system named is Pseudomonas aeruginosa. Put plainly: Antibacterial activity against Pseudomonas aeruginosa after 24 hr by two-fold serial dilution method.
The subject of assay [7] is Klebsiella pneumoniae. Put plainly: Antibacterial activity against Klebsiella pneumoniae after 24 hr by two fold serial dilution method.

Usually MIC stands for the lowest concentration that inhibits growth of the organism. Regarding `C[C@@H]1[C@H](O)[C@@H](C)/C=C/C=C/C=C/C=C/C=C/C=C/C=C/[C@H](O[C@@H]2O[C@H](C)[C@@H](O)[C@H](N)[C@@H]2O)C[C@@H]2O[C@](O)(C[C@@H](O)C[C@@H](O)[C@H](O)CC[C@@H](O)C[C@@H](O)CC(=O)O[C@H]1C)C[C@H](O)[C@H]2C(=O)O` [AMPHOTERICIN B], the minimum inhibitory concentration (MIC) in assay [1] amounted to 50 µg/mL (≈ 54.1 µM); in assay [2] it was 25 µg/mL (≈ 27.1 µM); in assay [3], 50 µg/mL (≈ 54.1 µM).
`O=C(O)c1cn(C2CC2)c2cc(N3CCNCC3)c(F)cc2c1=O` [CIPROFLOXACIN]: the MIC in assay [4] was determined as 25 µg/mL (≈ 75.4 µM); in assay [5] it was 50 µg/mL (≈ 151 µM); in assay [6], 50 µg/mL (≈ 151 µM).
In the case of `CCC1/C(=N\O)CC(c2ccco2)N(C=O)C1c1ccco1` (centres undefined), the MIC in assay [1] worked out at 25 µg/mL (≈ 82.7 µM); in assay [2] it was 50 µg/mL (≈ 165 µM); in assay [7], 50 µg/mL (≈ 165 µM); in assay [4], 50 µg/mL (≈ 165 µM); in assay [5] it was 100 µg/mL (≈ 331 µM); in assay [6] it was 100 µg/mL (≈ 331 µM). Moreover, the MIC in assay [3] was determined as 25 µg/mL (≈ 82.7 µM).
On to `O=CN1C(c2ccco2)C/C(=N/O)C(Cc2ccccc2)C1c1ccco1` (centres undefined), for which the MIC in assay [1] came out at 50 µg/mL (≈ 137 µM); in assay [2], 25 µg/mL (≈ 68.6 µM); in assay [7], 25 µg/mL (≈ 68.6 µM); in assay [4], 25 µg/mL (≈ 68.6 µM); in assay [5] it was 25 µg/mL (≈ 68.6 µM); in assay [6] it was 25 µg/mL (≈ 68.6 µM). For the same compound, it took 25 µg/mL (≈ 68.6 µM) to inhibit growth in assay [3] (MIC).
Regarding `CC1/C(=N\O)CC(c2ccco2)N(C=O)C1c1ccco1` (centres undefined), the minimal inhibitory concentration (MIC) in assay [1] amounted to 50 µg/mL (≈ 173 µM); in assay [2] it was 50 µg/mL (≈ 173 µM); in assay [7] it was 100 µg/mL (≈ 347 µM); in assay [4] it was 50 µg/mL (≈ 173 µM); in assay [5] it was 100 µg/mL (≈ 347 µM); in assay [6] it was 100 µg/mL (≈ 347 µM). The same compound returned a minimum inhibitory concentration (MIC) in assay [3] of 25 µg/mL (≈ 86.7 µM).
As for `CC(C)C1/C(=N\O)CC(c2ccco2)N(C=O)C1c1ccco1` (centres undefined), the minimum inhibitory concentration (MIC) in assay [1] was 50 µg/mL (≈ 158 µM); in assay [2], 12.5 µg/mL (≈ 39.5 µM); in assay [7], 25 µg/mL (≈ 79 µM); in assay [4], 25 µg/mL (≈ 79 µM); in assay [5], 50 µg/mL (≈ 158 µM); in assay [6] it was 50 µg/mL (≈ 158 µM). Moreover, in assay [3], inhibition of growth (MIC) required 12.5 µg/mL (≈ 39.5 µM).
